Laboratory results published in patent US6355799B1, “Substituted benzene compounds, process for their preparation, and herbicidal and defoliant compositions containing them” (ISK Americas Incorporated, priority 1997, dated 2002).

Tests used:
Type in all cases: in vivo
[1] = system: lambsquarters (Chenopodium album, CHEAL); assay: Pre-emerge test, greenhouse herbicide activity screening; conditions: pre-emerge, 14 days after application, rating scale 0-100
In short: (§1)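 Compounds in acetone were track-sprayed at 15–1000 g ai/ha: pre-emergence onto soil sown the previous day, then top-watered to incorporate and later bottom-watered; post-emergence onto 2–3 leaf plants with 0.25% v/v surfactant, bottom-watered only. Ratings on a 0–100 phytotoxicity scale were taken at day 14.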

[2] = system: johnsongrass (Sorghum halepense, SORHA); assay: as above; conditions: pre-emerge, 14 days after application, rating scale 0-100
In short: as §1

[3] = system: ivyleaf morningglory (Ipomoea hederacea, IPOHE); assay: as above; conditions: pre-emerge, 14 days after application, rating scale 0-100
In short: as §1

[4] = system: large crabgrass (Digitaria sanguinalis, DIGSA); assay: as above; conditions: pre-emerge, 14 days after application, rating scale 0-100
In short: as §1

[5] = system: velvetleaf (Abutilon theophrasti, ABUTH); assay: as above; conditions: pre-emerge, 14 days after application, rating scale 0-100
In short: as §1

[6] = system: barnyardgrass (Echinochloa crus-galli, ECHCG); assay: as above; conditions: pre-emerge, 14 days after application, rating scale 0-100
In short: as §1

[7] = system: sicklepod (Cassia obtusifolia, CASOB); assay: as above; conditions: pre-emerge, 14 days after application, rating scale 0-100
In short: as §1

[8] = system: green foxtail (Setaria viridis, SETVI); assay: as above; conditions: pre-emerge, 14 days after application, rating scale 0-100
In short: as §1

[9] = system: field corn (Zea mays L., var. Dekalb 535, CORN); assay: Pre-emerge test, crop safety; conditions: pre-emerge, 14 days after application, rating scale 0-100
In short: (§2)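 Applied at 15–1000 g ai/ha from acetone in 187 l/ha spray volume. Post-emergence applications included 0.25% v/v non-ionic surfactant and reached plants sown 8–21 days before. Pre-emergence applications were incorporated by surface watering. Efficacy or crop damage was rated on a 0–100 scale after 14 days.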

[10] = system: upland rice (Oryza sp., var. Tebonnet, RICE); assay: Pre-emerge test, crop safety; conditions: pre-emerge, 14 days after application, rating scale 0-100
In short: as §2

[11] = system: redroot pigweed (Amaranthus retroflexus, AMARE); assay: Pre-emerge test, greenhouse herbicide activity screening; conditions: pre-emerge, 14 days after application, rating scale 0-100
In short: (§3)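 Rating: 0–100 visual injury, 14 DAA. Application: acetone, 187 l/ha, 15–1000 g ai/ha, flat-fan track sprayer with nozzle 40–45 cm above soil or canopy. Post-emerge runs used 0.25% v/v surfactant on 2–3 leaf plants.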

[12] = system: field corn (Zea mays L., var. Dekalb 535, CORN); assay: Post-emerge test, crop safety; conditions: post-emerge, 14 days after application, rating scale 0-100
In short: as §3

[13] = system: upland rice (Oryza sp., var. Tebonnet, RICE); assay: Post-emerge test, crop safety; conditions: post-emerge, 14 days after application, rating scale 0-100
In short: as §3

[14] = system: johnsongrass (Sorghum halepense, SORHA); assay: Post-emerge test, greenhouse herbicide activity screening; conditions: post-emerge, 14 days after application, rating scale 0-100
In short: (§4)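 Plants grown in 10 cm pots of sandy loam mix received acetone-dissolved compounds through a moving flat-fan nozzle. Doses ranged from 15 to 1000 g ai/ha. Pre-emerge pots were seeded one day earlier, post-emerge pots 8–21 days earlier. Fourteen days on, each pot was graded 0–100 for damage.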

[15] = system: redroot pigweed (Amaranthus retroflexus, AMARE); assay: as above; conditions: post-emerge, 14 days after application
In short: as §4

[16] = system: ivyleaf morningglory (Ipomoea hederacea, IPOHE); assay: as above; conditions: post-emerge, 14 days after application, rating scale 0-100
In short: as §4

[17] = system: large crabgrass (Digitaria sanguinalis, DIGSA); assay: as above; conditions: post-emerge, 14 days after application, rating scale 0-100
In short: as §4

[18] = system: velvetleaf (Abutilon theophrasti, ABUTH); assay: as above; conditions: post-emerge, 14 days after application, rating scale 0-100
In short: as §4

[19] = system: barnyardgrass (Echinochloa crus-galli, ECHCG); assay: as above; conditions: post-emerge, 14 days after application, rating scale 0-100
In short: as §4

[20] = system: sicklepod (Cassia obtusifolia, CASOB); assay: as above; conditions: post-emerge, 14 days after application, rating scale 0-100
In short: as §4

[21] = system: green foxtail (Setaria viridis, SETVI); assay: as above; conditions: post-emerge, 14 days after application, rating scale 0-100
In short: as §4

COc1c(Cl)cc(F)c(-n2c(=O)cc(C(F)(F)F)n(C)c2=O)c1NNC(=O)C1CC1 [Compound 15-2, 3-[4-chloro-2-(2-cycopropanecarbonyldiazanyl)-6-fluoro-3-methoxyphenyl]-1-methyl-6-trifluoromethyl-2,4(1H, 3H)-pyrimidinedione]
80: phytotoxicity rating CORN ([9]; 63 g ai/ha) | Post-emerge Herbicidal Activity CORN (crop damage rating) ([12]; 250 g ai/ha) | Post-emerge Herbicidal Activity DIGSA (phytotoxicity rating) ([17]; 250 g ai/ha) | Post-emerge Herbicidal Activity ABUTH (phytotoxicity rating) ([18]; 63 g ai/ha) | Post-emerge Herbicidal Activity SETVI (phytotoxicity rating) ([21]; 250 g ai/ha)
100: phytotoxicity rating CHEAL ([1]; 63 g ai/ha) | phytotoxicity rating CHEAL ([1]; 250 g ai/ha) | phytotoxicity rating SORHA ([2]; 63 g ai/ha) | phytotoxicity rating SORHA ([2]; 250 g ai/ha) | phytotoxicity rating IPOHE ([3]; 250 g ai/ha) | phytotoxicity rating DIGSA ([4]; 63 g ai/ha) | phytotoxicity rating DIGSA ([4]; 250 g ai/ha) | phytotoxicity rating ABUTH ([5]; 63 g ai/ha) | phytotoxicity rating ABUTH ([5]; 250 g ai/ha) | phytotoxicity rating ECHCG ([6]; 63 g ai/ha) | phytotoxicity rating ECHCG ([6]; 250 g ai/ha) | phytotoxicity rating CASOB ([7]; 63 g ai/ha) | phytotoxicity rating CASOB ([7]; 250 g ai/ha) | phytotoxicity rating SETVI ([8]; 63 g ai/ha) | phytotoxicity rating SETVI ([8]; 250 g ai/ha) | phytotoxicity rating CORN ([9]; 250 g ai/ha) | phytotoxicity rating RICE ([10]; 250 g ai/ha) | phytotoxicity rating AMARE ([11]; 63 g ai/ha) | phytotoxicity rating AMARE ([11]; 250 g ai/ha) | Post-emerge Herbicidal Activity IPOHE (phytotoxicity rating) ([16]; 250 g ai/ha) | Post-emerge Herbicidal Activity ABUTH (phytotoxicity rating) ([18]; 250 g ai/ha)
99: phytotoxicity rating RICE ([10]; 63 g ai/ha)
15: Post-emerge Herbicidal Activity CORN (crop damage rating) ([12]; 63 g ai/ha)
10: phytotoxicity rating IPOHE ([3]; 63 g ai/ha) | Post-emerge Herbicidal Activity CASOB (phytotoxicity rating) ([20]; 63 g ai/ha)
70: Post-emerge Herbicidal Activity SORHA (phytotoxicity rating) ([14]; 250 g ai/ha)
75: Post-emerge Herbicidal Activity RICE (crop damage rating) ([13]; 250 g ai/ha) | Post-emerge Herbicidal Activity CASOB (phytotoxicity rating) ([20]; 250 g ai/ha)
50: Post-emerge Herbicidal Activity RICE (crop damage rating) ([13]; 63 g ai/ha)
90: Post-emerge Herbicidal Activity IPOHE (phytotoxicity rating) ([16]; 63 g ai/ha) | Post-emerge Herbicidal Activity ECHCG (phytotoxicity rating) ([19]; 250 g ai/ha)
0: Post-emerge Herbicidal Activity SORHA (phytotoxicity rating) ([14]; 63 g ai/ha) | Post-emerge Herbicidal Activity DIGSA (phytotoxicity rating) ([17]; 63 g ai/ha) | Post-emerge Herbicidal Activity ECHCG (phytotoxicity rating) ([19]; 63 g ai/ha) | Post-emerge Herbicidal Activity SETVI (phytotoxicity rating) ([21]; 63 g ai/ha)
20: Post-emerge Herbicidal Activity AMARE (phytotoxicity rating) ([15]; 63 g ai/ha, rating scale 0-100 (0 no damage, 100 complete death))
95: Post-emerge Herbicidal Activity AMARE (phytotoxicity rating) ([15]; 250 g ai/ha, rating scale 0-100)
